Results taken from paper PMC5317004 (Scientific Reports, 2017).

Tested on: T1, homomeric GluClβR
T1 construct: homomeric receptors assembled from the full-length C. elegans GluClβ subunit; expressed in transfected cells; host or cells: CHO-K1 cells, transient transfection, pcDNA3.1
Test: Effect of IVM on Glu-elicited currents of homomeric GluClβ receptors in CHO cells (whole-cell patch clamp)
Assay type: cell-based, C. elegans
Details: pre-application of 2 μM IVM for 10 seconds, 100 mM Glu, +60 mV, four cells
Protocol: Figure 9 Effect of IVM on homomeric GluClβ receptors. (A) Representative current traces obtained by the indicated application protocol. Glu (100 mM) was applied for either 350 ms to obtain peak IP0 at −60 mV, or 600 ms to obtain peaks IP1, IP2 and IP3 at +60 mV. Note that the responses at both membrane voltages, −60 and +60 mV, start to desensitize appreciably before the end of Glu application. IVM (2 μM) was applied for 10 seconds. Asterisk indicates a 25-sec-long wash between the second and third Glu applications. (B) Current-voltage (I/V) relations obtained in a different cell than in A upon the application of Glu (100 mM) over a voltage ramp lasting 200 ms. […] Current ratios were extracted from experiments performed as shown in (A). Mean ± SEM of four cells are presented. Paired, two-tailed Student’s t-tests indicate that **0.001 < P < 0.01 and ***P < 0.0002.
Supplementary Information
Trapping of ivermectin by a pentameric ligand-gated ion channel upon open-to-cl ose d i someri zati on N. Degani-Katzav, M. Klein, M. Har-Even, R. Gortler, R. Tobi and Y. Paas*
Supplementary Materials and Methods […]
The electrode resistance was 6-10 MΩ when filled with the pipette solution. […] The currents w ere measured with an Axopatch 200B patch-clamp amplifier (Molecular Devices, Sunnyvale, CA) and a Digidata 1440A interface (Molecular Devices). […]

## CC[C@H](C)[C@H]1O[C@]2(CC[C@@H]1C)C[C@@H]1C[C@@H](C/C=C(\C)[C@@H](O[C@H]3C[C@H](OC)[C@@H](O[C@H]4C[C@H](OC)[C@@H](O)[C@H](C)O4)[C@H](C)O3)[C@@H](C)/C=C/C=C3\CO[C@@H]4[C@H](O)C(C)=C[C@@H](C(=O)O1)[C@]34O)O2 [IVM, Ivermectin]
  Glu response remaining after IVM pre-application (IP2/IP1 ratio): ~67%
